In patent EP0806480A2, “Frenolicin gene cluster” (F. HOFFMANN-LA ROCHE AG, priority 1996, dated 1997):

System: Streptomyces and other bacteria
Test: Toxicity of frenolicins to bacteria (comparative statement, no method described)
Type: cell-based
Conditions: relative ranking among the frenolicins; qualitative only

| Compound | toxic to Streptomyces and other bacteria |
| --- | --- |
| frenolicin epoxide | even less so |
| frenolicin B [reference compound] | most toxic |
| CCC[C@H]1O[C@H](CC(=O)O)CC2=C1C(=O)c1c(O)cccc1C2=O [deoxyfrenolicin] | less toxic |
